Test results as given in patent US20050032866A1, “The use of 5ht4 receptor antagonists in the prophylaxis or treatment of certain cardiovascular conditions” (priority 2000, published 2005).
“And” between values parts separate entries of the source, which are not always exact repeats. Equal values may be shown once.

How the values were obtained:
5-HT3A receptors = 5-HT3A receptors (Homo sapiens, UniProt P46098); settings: cited from earlier work
5-HT4A receptors = 5-HT4A receptors (Homo sapiens, UniProt Q13639); settings: cited from earlier work
5-HT4B receptor = 5-HT4B receptor (Homo sapiens, UniProt Q13639); experiment: 5-HT4B receptor antagonism; assay type: biochemical
5-HT4 receptor = molecular target: T1, 5-HT4 receptor (Cavia porcellus, UniProt O70528); experiment: guinea pig distal colon longitudinal muscle-myenteric plexus, 5-HT-evoked contraction; assay type: cell-based
T1 construct: Longitudinal muscle-myenteric plexus preparations, approximately 3 cm long, are obtained from the distal colon region; from tissue; host or cells: guinea-pig distal colon longitudinal muscle-myenteric plexus
Procedure: Male guinea-pigs, weighing 250-400 g are used.
In some experiments, this tissue was dosed alternately with an approximately equi-effective concentration of the nicotine receptor stimulant, dimethylphenylpiperazinium (DMPP).

[1] = system: 5-HT-induced atrial arrhythmia in anesthetized Yucatan minipigs; experiment: 5-HT-induced atrial fibrillation / atrial remodelling after rapid atrial pacing in anesthetized Yucatan minipigs; assay type: in vivo, Yucatan minipig; settings: for AERP (Example 2): sensitized pigs, predrug 90±3; for AF inducibility: 64±6% prior to treatment, 10 bursts of pacing; for mean duration of AF episodes: pre-drug 1.9±0.4
Procedure: The antiarrhythmic efficacy of SB-207266 (0.3 and 1.0 mg/kg, intravenous) was evaluated on the inducibility of AF in a model of 5-HT-induced atrial arrhythmia in anesthetized Yucatan minipigs. […] The atrial effective refractory period (AERP) and AF inducibility were determined during programmed stimulation and burst electrical pacing.
Animals. Male Yucatan minipigs (12-17 kg weight) were obtained from Charles River (Saint-Aubin les Elboeuf, France) and were maintained at rest over a 2-week acclimatision period prior to experiments.
Surgical Preparation of Animals. The minipigs (Charles River, France) were fasted and premedicated (2 mg/kg diazepam+15 mg/kg ketamine, i.m.) before induction of anesthesia by isoflurane inhalation (5% for induction followed by 0.5 to 1.5% for technical preparation) in a mixture of 25% O2 and 75% N2O. The long term anesthesia was maintained with an i.v. infusion of sodium pentobarbital (12 mg/kg/h). A mechanical ventilator (Harvard pump 613) was used to provide artificial respiration during the left thoracotomy in order to keep arterial blood gases and pH within the normal limits (ABL 500 analyzer). Fluid filled catheters were placed in the femoral artery and vein to measure the arterial pressure (P23 ID transducer) and for drug administrations, respectively. Leads II, III and a precordial lead of electrocardiogram were placed for monitoring of standard ECG parameters. Two pairs of electrodes were hooked to the left atrial wall for subsequent stimulation (S8800 stimulator and SIU-5 unit) and for measurement of an atrial electrogram.
Sensitization of the Atrial Tissue. The left atrial appendage was sensitized by rapid atrial pacing (200 ms cycle length over 3 hours) to generate an initial electrical remodelling of the tissue [A. Goette et al., 1996, Circulation, 94, 2968-2974]. […] The cellulose patch retains the 5-HT in contact with the tissue.
Electrophysiologic Study. The atrial effective refractory period (AERP) was determined using a conventional single extrastimulus technique as previously described [A. Bril, B. Gout et al., J. Pharmacol. Exp. Ther., 1996, 276, 637-646.]. Briefly, a 8-stimulus train at a basic cycle length 20% shorter than the sinus rhythm was followed by a single premature extrastimulus (4 ms, 1.5 times threshold current) introduced at progressively shorter coupling intervals from the atrial pacing until no atrial response was obtained.
After determination of AERP, the atrial fibrillation (AF) challenge was started. AF was induced following atrial pacing by a 2 sec-burst of stimulation (basic cycle length 20 ms cycle length, 2 ms duration, twice the diastolic threshold) introduced within the vulnerable window (AERP+10 ms). AF was defined as at least 1 sec of irregular electrical activity measured on atrial electrogram.
Study Design and Dosing. After assessment of reproducible baseline responses of animals (3 successive AF challenges), the minipigs were randomly assigned to receive either sterile distilled water (vehicle group, n=7), or escalating doses of SB-207266 (0.3 and 1.0 mg/kg, n=7) given i.v. over a 10 min period 15 min before determination of AERP and subsequent AF challenge. SB-207266 was dissolved in sterile distilled water and adequate drug solutions were prepared every day. Treatment with vehicle represented a volume of distilled water similar to that used for drug solution (10 ml). Each dose of SB-207266 was administered at 45 min intervals to allow recovery of animals from previous burst pacing challenge.
Measurements and Calculations. All parameters were monitored on a chart paper polyrecorder (TA-5000) and digital recording was performed throughout the protocol (DTR 1800). When measured, heart rate was calculated from the ECG and the mean arterial blood pressure was calculated from the pulse pressure. A corrected QT was determined according to the Bazett's formula (QTc=QT (ms)/RR (sec)^1/2). […]

[2] = preliminary studies of side-effects at human daily oral doses; assay type: in vivo; settings: corresponds to about 1.6 to 1.7 mg/kg/day or more
[3] = plasma pharmacokinetics of SB 207266 on once daily oral dosing; assay type: in vivo, human
[4] = plasma concentration of SB-207266 in minipig (LC/MS/MS); assay type: in vivo, Yucatan minipig; settings: 5 min after end of bolus
Procedure: Evaluation of Plasma Concentration of SB-207266. For each AF challenge, blood samples were collected on EDTA (6%) 5 min after the end of the bolus administration of drug (time point 15 min, see asterisks in FIG. 4A) and centrifuged (1500×g, 10 min at 4° C.). The plasma samples were stored at −80° C. for subsequent analysis. Plasma samples were not collected in the vehicle group. The determination of plasma concentration of SB-207266 was performed by LC/MS/MS with a LLQ for this assay of 5 ng/ml in the pig.

5-HT1C = 5-HT1C (Homo sapiens, UniProt P28335); experiment: radioligand selectivity, 5-HT1C receptors; assay type: binding; settings: read-out: pKi at 5-HT1C (converted)
[5] = molecular target: piglet hippocampal 5-HT4 receptors (Sus scrofa, UniProt Q6Q253); experiment: binding to piglet hippocampal 5-HT4 receptors, 125I-labelled SB-207710; settings: piglet hippocampal membranes, n=4
5-HT1A = 5-HT1A (Homo sapiens, UniProt P08908); experiment: radioligand selectivity, 5-HT1A receptors; assay type: binding; settings: read-out: pKi at 5-HT1A (converted)
[6] = system: 5-HT-induced atrial arrhythmia in anesthetized Yucatan minipigs; experiment: 5-HT-induced atrial fibrillation / atrial remodelling after rapid atrial pacing in anesthetized Yucatan minipigs; assay type: in vivo, Yucatan minipig; settings: 5-HT alone, topical application for 3 hours, no pacing; control 110.2±1.9; not significant; n=6

Chain of 5-HT4B receptor (Q13639 whole entry): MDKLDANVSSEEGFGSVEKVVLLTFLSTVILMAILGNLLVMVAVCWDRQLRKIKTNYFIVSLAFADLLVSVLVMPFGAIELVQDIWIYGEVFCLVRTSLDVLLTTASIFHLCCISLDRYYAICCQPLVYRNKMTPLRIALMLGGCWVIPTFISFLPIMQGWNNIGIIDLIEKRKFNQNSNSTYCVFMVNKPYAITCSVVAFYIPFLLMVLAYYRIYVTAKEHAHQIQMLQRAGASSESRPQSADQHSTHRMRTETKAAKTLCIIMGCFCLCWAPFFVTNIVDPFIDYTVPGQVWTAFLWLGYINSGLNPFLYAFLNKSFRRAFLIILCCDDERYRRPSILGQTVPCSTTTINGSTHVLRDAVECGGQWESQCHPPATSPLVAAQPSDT
Chain of 5-HT3A receptors (P46098 24-478): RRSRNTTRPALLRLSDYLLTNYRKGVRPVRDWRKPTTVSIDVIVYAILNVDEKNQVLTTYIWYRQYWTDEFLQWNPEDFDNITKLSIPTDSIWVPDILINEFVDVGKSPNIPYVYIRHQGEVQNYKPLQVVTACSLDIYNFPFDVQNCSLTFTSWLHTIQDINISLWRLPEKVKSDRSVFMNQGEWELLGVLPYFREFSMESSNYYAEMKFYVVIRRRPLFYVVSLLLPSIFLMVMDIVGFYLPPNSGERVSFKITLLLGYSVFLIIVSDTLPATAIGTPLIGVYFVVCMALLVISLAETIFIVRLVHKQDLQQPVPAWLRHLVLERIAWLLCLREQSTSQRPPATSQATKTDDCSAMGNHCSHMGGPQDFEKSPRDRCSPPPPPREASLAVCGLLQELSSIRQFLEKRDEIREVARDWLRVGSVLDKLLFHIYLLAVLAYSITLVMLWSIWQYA
Chain of 5-HT4A receptors (Q13639 1-387 isoform Q13639-2): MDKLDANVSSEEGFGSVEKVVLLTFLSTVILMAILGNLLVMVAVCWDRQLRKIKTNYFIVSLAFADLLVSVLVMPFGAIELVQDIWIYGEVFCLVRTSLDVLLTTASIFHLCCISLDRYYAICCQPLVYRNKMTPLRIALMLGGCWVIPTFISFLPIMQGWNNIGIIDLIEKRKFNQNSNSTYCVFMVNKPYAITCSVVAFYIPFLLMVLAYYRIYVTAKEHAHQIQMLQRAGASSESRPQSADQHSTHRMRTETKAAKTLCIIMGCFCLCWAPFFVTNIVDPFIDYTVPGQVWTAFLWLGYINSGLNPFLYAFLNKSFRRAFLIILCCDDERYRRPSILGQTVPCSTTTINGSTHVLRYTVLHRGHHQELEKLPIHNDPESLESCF
Chain of 5-HT1C (P28335 33-458, species assumed): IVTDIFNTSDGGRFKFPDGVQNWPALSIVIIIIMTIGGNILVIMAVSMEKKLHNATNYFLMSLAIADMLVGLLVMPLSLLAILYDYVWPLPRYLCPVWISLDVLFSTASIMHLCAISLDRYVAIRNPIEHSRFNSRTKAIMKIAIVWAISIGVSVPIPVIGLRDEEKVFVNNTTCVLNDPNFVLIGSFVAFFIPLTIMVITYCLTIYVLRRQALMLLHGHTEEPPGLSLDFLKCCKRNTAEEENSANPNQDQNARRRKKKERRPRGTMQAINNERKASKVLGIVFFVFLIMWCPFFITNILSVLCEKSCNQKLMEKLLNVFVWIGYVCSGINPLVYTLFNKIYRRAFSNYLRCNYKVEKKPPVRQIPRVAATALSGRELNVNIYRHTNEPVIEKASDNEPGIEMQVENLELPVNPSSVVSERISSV
Chain of piglet hippocampal 5-HT4 receptors (Q6Q253 1-402): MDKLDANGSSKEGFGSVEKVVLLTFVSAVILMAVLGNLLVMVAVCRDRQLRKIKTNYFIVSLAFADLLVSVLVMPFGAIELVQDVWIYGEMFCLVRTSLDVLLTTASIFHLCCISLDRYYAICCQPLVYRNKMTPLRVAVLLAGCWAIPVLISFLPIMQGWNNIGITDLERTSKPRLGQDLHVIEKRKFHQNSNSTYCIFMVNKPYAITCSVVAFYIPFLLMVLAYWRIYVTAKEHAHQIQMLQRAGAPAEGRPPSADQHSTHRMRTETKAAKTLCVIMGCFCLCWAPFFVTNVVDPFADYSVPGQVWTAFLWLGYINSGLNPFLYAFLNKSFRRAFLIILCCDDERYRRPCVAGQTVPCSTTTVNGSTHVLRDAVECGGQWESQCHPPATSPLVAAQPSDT
Chain of 5-HT1A (P08908 whole entry, species assumed): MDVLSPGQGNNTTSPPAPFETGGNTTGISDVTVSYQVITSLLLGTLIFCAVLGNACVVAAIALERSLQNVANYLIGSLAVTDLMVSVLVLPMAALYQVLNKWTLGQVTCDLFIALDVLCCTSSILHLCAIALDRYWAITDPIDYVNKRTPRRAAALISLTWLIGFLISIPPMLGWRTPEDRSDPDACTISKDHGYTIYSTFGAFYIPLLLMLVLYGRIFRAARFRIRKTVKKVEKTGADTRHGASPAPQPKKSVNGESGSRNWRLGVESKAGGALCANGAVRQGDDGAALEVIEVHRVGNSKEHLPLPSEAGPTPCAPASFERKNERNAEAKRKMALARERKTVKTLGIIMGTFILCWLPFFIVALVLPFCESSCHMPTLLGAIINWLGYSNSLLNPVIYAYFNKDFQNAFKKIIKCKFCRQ
T1 sequence (O70528 whole entry): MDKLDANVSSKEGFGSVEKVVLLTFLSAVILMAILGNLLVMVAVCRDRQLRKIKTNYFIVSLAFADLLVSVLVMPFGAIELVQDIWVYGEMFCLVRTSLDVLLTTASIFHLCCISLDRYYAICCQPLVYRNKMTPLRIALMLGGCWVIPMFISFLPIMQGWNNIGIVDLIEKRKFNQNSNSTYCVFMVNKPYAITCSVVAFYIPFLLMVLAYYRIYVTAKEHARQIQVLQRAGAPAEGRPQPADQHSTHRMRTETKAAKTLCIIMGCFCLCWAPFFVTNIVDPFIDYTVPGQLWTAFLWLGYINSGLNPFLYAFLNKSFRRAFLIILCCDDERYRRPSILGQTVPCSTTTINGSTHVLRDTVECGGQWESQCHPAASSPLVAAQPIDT

Cc1noc(-c2ccccc2NC(=O)OCC2CCN(CCNS(C)(=O)=O)CC2)n1 [GR 138897, [1-[2-[(Methylsulphonyl)amino]ethyl]-4-piperidinyl]methyl[2-(3-methyl-1,2,4-oxadiazol-5-yl)phenyl]carbamate]
pKi at 5-HT3A receptors (5-HT3A receptors): < 5.0
pKi at 5-HT4A receptors (5-HT4A receptors): 10.3

CCCCN1CCC(CNC(=O)c2c3n(c4ccccc24)CCCO3)CC1 [SB 207266, N-[(1-^nbutyl-4-piperidinyl)methyl]-3,4-dihydro-2H-[1,3]oxazino[3,2-a]indole-10-carboxamide]
5-HT4B receptor antagonism (5-HT4B receptor): 5-HT4B antagonist and found to antagonise 5HT4B receptors
5-HT4 receptor antagonist activity in guinea pig colon (5-HT4 receptor): particularly good activity
AERP (Example 1) ([1]; 0.3 mg/kg i.v., after pacing and 5-HT, pre-drug 90.0±2.7, p<0.01 vs vehicle): 102.3 ± 2.7 ms
AERP (Example 2) ([1]; 0.3 mg/kg i.v.): 102 ± 3 ms
AF inducibility ([1]; 0.3 mg/kg i.v.): 46±11%
mean duration of AF episodes ([1]; 0.3 mg/kg i.v.): 1.1 ± 0.4 s and 1.1 ± 0.2 s
decrease in AERP caused by rapid atrial pacing plus 5-HT application ([1]; 1.0 mg/kg i.v.): fully restored
AERP (Example 1) ([1]; 1.0 mg/kg i.v., after pacing and 5-HT, pre-drug 90.0±2.7, p<0.01 vs vehicle): 110.0 ± 3.6 ms
AERP (Example 2) ([1]; 1.0 mg/kg i.v.): 110 ± 4 ms
AF inducibility ([1]; 1.0 mg/kg i.v.): 30±9%
mean duration of AF episodes ([1]; 1.0 mg/kg i.v.): No further reduction
human daily oral dose that might give rise to certain side-effects [2]: ≥ 120 mg
half-life ([3]; human, plasma, oral, read-out: elimination half-life T½): 20 to 24 h
time to reach steady-state plasma concentrations ([3]; once daily dosing): 4 to 5 days
plasma concentration on day 4 as share of the steady-state plasma concentration ([3]; once daily dosing, day 4): about 90%
extent of accumulation ([3]; once daily oral dosing): approximately 1.5 fold
plasma level of SB-207266 ([4]; 0.3 mg/kg i.v., n=6): 137.7 ± 15.2 ng/mL
plasma level of SB-207266 ([4]; 1.0 mg/kg i.v., n=5): 562.3 ± 40.1 ng/mL

CCCCN1CCC(COC(=O)c2cc(I)c(N)c3c2OCCO3)CC1 [SB-207710, (1-butyl-4-piperidyl)methyl 8-amino-7-iodo-1,4-benzodioxan-5-carboxylate]
Ki (5-HT1C): ≥ 1 µM
Bmax of radioligand [5]: 16±3 fmol/mg protein
Ki (5-HT1A): ≥ 1 µM

NCCc1c[nH]c2ccc(O)cc12 [5-HT, reference compound]
AERP [6]: 104.0 ± 6.5 ms
AERP ([1]; 5-HT applied after 3 h rapid atrial pacing, pacing alone 93.6±3.6): 91.8 ± 3.3 ms
AERP (Example 1) ([1]; rapid atrial pacing and application of 5-HT, before vehicle or drug, from 111.6±2.6): 90.9 ± 2.1 ms

COc1[nH]c2ccc(F)cc2c1C(=O)OCC1CCN(CCNS(C)(=O)=O)CC1 [GR 125487, [1-[2-[(Methylsulphonyl)amino]ethyl]-4-piperidinyl]methyl 5-fluoro-2-methoxy-1H-indole-3-carboxylate]
pKi at 5-HT3A receptors (5-HT3A receptors): < 6.5
pKi at 5-HT4A receptors (5-HT4A receptors): 10.0
